Assay results published in the supplement of paper PMC10307832.

Key:
Assay in all cases: relative viability (nuclei count vs DMSO), 5 days (fraction); higher = more cells survive
[1] = compound: COc1cc2ncn(-c3cc(OCc4ccccc4C(F)(F)F)c(C(N)=O)s3)c2cc1OC + CC(C)C[C@H](NC(=O)[C@H](Cc1ccccc1)NC(=O)c1cnccn1)B(O)O [Bortezomib] (partner 0.002 µM)
Method in brief: (§1)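 Medians of duplicate plates are given as relative viability. That measure is the nuclei count in treated wells divided by the count in vehicle wells. Counts were taken on 4× images of lung cancer cell lines in 1536-well plates, 5 days after pin-tool dosing the day after seeding with one drug alone or a fixed anchor-drug dose plus five library-drug doses (not always all listed) in √10 steps.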

[2] = compound: COc1cc2ncn(-c3cc(OCc4ccccc4C(F)(F)F)c(C(N)=O)s3)c2cc1OC + CC(=O)Nc1cccc(-n2c(=O)n(C3CC3)c(=O)c3c(Nc4ccc(I)cc4F)n(C)c(=O)c(C)c32)c1 [Trametinib] (partner 0.02 µM)
Method in brief: as §1

[3] = compound: COc1cc2ncn(-c3cc(OCc4ccccc4C(F)(F)F)c(C(N)=O)s3)c2cc1OC + O=C(c1cc(Cc2n[nH]c(=O)c3ccccc23)ccc1F)N1CCN(C(=O)C2CC2)CC1 [Olaparib] (partner 8 µM)
Method in brief: as §1

[4] = compound: COc1cc2ncn(-c3cc(OCc4ccccc4C(F)(F)F)c(C(N)=O)s3)c2cc1OC + CS(=O)(=O)N1CCN(Cc2cc3nc(-c4cccc5[nH]ncc45)nc(N4CCOCC4)c3s2)CC1 [Pictilisib] (partner 1 µM)
Method in brief: as §1

Row | Cell Line | relative viability ([1]; first compound 0.05 µM) | relative viability ([1]; first compound 0.1581 µM) | relative viability ([1]; first compound 0.5 µM) | relative viability ([1]; first compound 1.581 µM) | relative viability ([1]; first compound 5 µM) | relative viability ([2]; first compound 0.05 µM) | relative viability ([2]; first compound 0.1581 µM) | relative viability ([2]; first compound 0.5 µM) | relative viability ([2]; first compound 1.581 µM) | relative viability ([2]; first compound 5 µM) | relative viability ([3]; first compound 0.05 µM) | relative viability ([3]; first compound 0.1581 µM) | relative viability ([3]; first compound 0.5 µM) | relative viability ([3]; first compound 1.581 µM) | relative viability ([3]; first compound 5 µM) | relative viability ([4]; first compound 0.05 µM) | relative viability ([4]; first compound 0.1581 µM) | relative viability ([4]; first compound 0.5 µM) | relative viability ([4]; first compound 1.581 µM) | relative viability ([4]; first compound 5 µM)
1 | NCI-H1734 | 1.01 | 0.884 | 0.59 | 0.234 | 0.143 | 0.52 | 0.558 | 0.623 | 0.294 | 0.163 | 0.235 | 0.646 | 0.247 | 0.212 | 0.144 | 0.493 | 0.48 | 0.409 | 0.206 | 0.172
2 | NCI-H1755 | 0.958 | 0.965 | 0.843 | 0.355 | 0.278 | 0.83 | 0.673 | 0.734 | 0.519 | 0.316 | 0.816 | 0.827 | 0.714 | 0.447 | 0.319 | 0.457 | 0.371 | 0.355 | 0.203 | 0.169
3 | NCI-H1792 | 0.958 | 0.91 | 0.88 | 0.423 | 0.223 | 0.305 | 0.43 | 0.275 | 0.0525 | 0.0332 | 0.152 | 0.273 | 0.457 | 0.0375 | 0.0338 | 0.278 | 0.254 | 0.158 | 0.0865 | 0.109
4 | NCI-H1915 | 1.04 | 0.925 | 0.853 | 0.107 | 0.0772 | 0.227 | 0.172 | 0.24 | 0.117 | 0.0537 | 0.232 | 0.211 | 0.176 | 0.108 | 0.0766 | 0.988 | 0.857 | 0.799 | 0.111 | 0.0806
5 | NCI-H1975 | 0.371 | 0.335 | 0.182 | 0.144 | 0.115 | 0.369 | 0.192 | 0.182 | 0.135 | 0.155 | 0.464 | 0.651 | 0.319 | 0.168 | 0.146 | 0.285 | 0.324 | 0.257 | 0.133 | 0.157
6 | NCI-H1993 | 1.09 | 1.13 | 0.874 | 0.618 | 0.516 | 0.473 | 0.499 | 0.387 | 0.345 | 0.427 | 0.952 | 1.14 | 0.742 | 0.535 | 0.462 | – | 0.812 | 0.73 | 0.553 | 0.588
7 | NCI-H2009 | 0.965 | 0.831 | 0.289 | 0.149 | 0.113 | 0.248 | 0.251 | 0.287 | 0.129 | 0.0949 | 0.604 | 0.623 | 0.171 | 0.107 | 0.0932 | 0.783 | 0.417 | 0.325 | 0.166 | 0.152
